Consider twelve molecules from ChEMBL document CHEMBL4342416, “Indole: A privileged scaffold for the design of anti-cancer agents” (Eur J Med Chem, 2019).

The test system of one assay is MOLT-3. The assay can be described thus: Antiproliferative activity against human MOLT3 cells assessed as reduction in cell viability after 3 days by MTT assay. Type of assay: functional, cell-based. The following applies: MOLT-3, 72 h. (In general: Tetrazolium dyes change colour on reduction, which living cells bring about.)
Assay [1] can be described thus: Inhibition of bovine brain microtubule polymerization incubated for 60 mins by spectrophotometric method. Details: species or system Bos taurus.
In assay [2] the target is Induced myeloid leukemia cell differentiation protein Mcl-1 (Homo sapiens, UniProt Q07820). The assay can be described thus: Inhibition of MCL1 (unknown origin).
Induced myeloid leukemia cell differentiation protein Mcl-1, sequence (Q07820 whole entry): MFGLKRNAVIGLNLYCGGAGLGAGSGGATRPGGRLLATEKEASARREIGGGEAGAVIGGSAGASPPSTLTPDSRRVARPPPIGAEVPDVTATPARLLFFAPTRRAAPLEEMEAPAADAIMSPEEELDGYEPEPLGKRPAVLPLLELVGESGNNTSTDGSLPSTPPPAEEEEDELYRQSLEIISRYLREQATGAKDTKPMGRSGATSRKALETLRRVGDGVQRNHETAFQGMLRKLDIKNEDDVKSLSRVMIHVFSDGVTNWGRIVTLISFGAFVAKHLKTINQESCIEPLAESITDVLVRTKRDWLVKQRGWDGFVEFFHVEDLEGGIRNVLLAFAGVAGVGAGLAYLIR
Another assay concerns the target Aromatase (Homo sapiens, UniProt P11511). As to the kind of experiment: Inhibition of recombinant human CYP19 using MFC as substrate incubated for 30 mins in presence of NADPH by fluorescence based assay.
In another assay the test system is HT-29. As to the kind of experiment: Antiproliferative activity against human HT-29 cells assessed as reduction in cell viability after 48 hrs by MTT assay. Type of assay: functional, cell-based. Particulars: HT-29, 48 h.
In assay [3] the test system is A549. As to the kind of experiment: Antiproliferative activity against human A549 cells assessed as reduction in cell viability after 48 hrs by MTT assay. The assay is classed as functional, cell-based. Particulars: A549, 48 h.
In assay [4] the target is Bromodomain-containing protein 4 (Homo sapiens) (UniProt O60885). The assay can be described thus: Inhibition of GST-tagged BRD4 bromodomain 1/2 (unknown origin) at 10 uM incubated for 3 hrs by fluorescence based assay relative to control.
Assay [5] addresses Histone deacetylase 3/Nuclear receptor corepressor 2 (HDAC3/NCoR2) (Homo sapiens, UniProt O15379). The assay can be described thus: Inhibition of recombinant human C-terminal GST/His-tagged HDAC3 (1 to 428 residues) co-expressed with human N-terminal GST-tagged NCOR2 (395 to 489 residues) in baculovirus infected Sf9 cells using Boc-Lys(Ac)-AMC as substrate preincubated for 15 mins followed by substrate addition and measured after 60 mins by fluorometric method.

Another assay has as its system THP-1. As to the kind of experiment: Growth inhibition of human THP1 cells incubated for 72 hrs by trypan blue assay. The assay is classed as functional. Particulars: THP-1, 72 h.
In assay [6] the test system is K562. The assay can be described thus: Antiproliferative activity against human K562 cells assessed as reduction in cell viability after 72 hrs by MTT assay. Type of assay: functional, cell-based. Particulars: K562, 72 h.
Assay [7] has as its system A549. The assay can be described thus: Antiproliferative activity against human A549 cells assessed as reduction in cell viability after 72 hrs by MTT assay. The assay is classed as functional, cell-based. The following applies: A549, 72 h.
Assay [8] concerns HepG2. The assay can be described thus: Antiproliferative activity against human HepG2 cells assessed as reduction in cell viability after 72 hrs by MTT assay. Type of assay: functional, cell-based. The following applies: HepG2, 72 h.
The target in assay [9] is Sigma non-opioid intracellular receptor 1 (Cavia porcellus, UniProt Q60492). As to the kind of experiment: Displacement of (+)-[3H]pentazocine from sigma1 receptor in guinea pig brain membranes. Type of assay: cell membranes.
Sigma non-opioid intracellular receptor 1, sequence (Q60492 whole entry): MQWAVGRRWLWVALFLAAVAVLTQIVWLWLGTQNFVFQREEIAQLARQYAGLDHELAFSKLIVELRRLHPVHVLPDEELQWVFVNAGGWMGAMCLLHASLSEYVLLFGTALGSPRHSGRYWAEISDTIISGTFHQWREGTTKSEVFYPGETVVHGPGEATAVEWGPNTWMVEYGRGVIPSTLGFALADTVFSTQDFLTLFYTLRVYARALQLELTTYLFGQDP
The next assay has as its target Histone deacetylase 3 (Homo sapiens, UniProt O15379). The assay can be described thus: Inhibition of HDAC3 (unknown origin).
The target of the next assay is Histone deacetylase 1 (Homo sapiens, UniProt Q13547).
Histone deacetylase 1, sequence (Q13547 whole entry): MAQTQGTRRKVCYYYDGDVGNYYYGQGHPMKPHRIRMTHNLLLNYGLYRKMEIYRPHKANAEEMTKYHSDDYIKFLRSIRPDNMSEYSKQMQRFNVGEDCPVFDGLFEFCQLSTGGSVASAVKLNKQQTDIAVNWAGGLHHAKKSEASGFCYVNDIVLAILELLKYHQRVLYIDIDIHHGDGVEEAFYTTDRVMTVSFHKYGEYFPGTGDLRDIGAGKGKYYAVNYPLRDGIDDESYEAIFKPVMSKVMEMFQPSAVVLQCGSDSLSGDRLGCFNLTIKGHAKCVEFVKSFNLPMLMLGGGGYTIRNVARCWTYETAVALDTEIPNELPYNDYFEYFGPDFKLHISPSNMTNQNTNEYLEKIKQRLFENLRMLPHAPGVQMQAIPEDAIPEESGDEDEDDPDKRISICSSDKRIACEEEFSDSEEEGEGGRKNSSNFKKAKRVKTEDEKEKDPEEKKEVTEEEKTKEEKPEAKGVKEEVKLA
Assay [10] deals with Polyamine deacetylase HDAC10 (Homo sapiens, UniProt Q969S8). As to the kind of experiment: Inhibition of HDAC10 (unknown origin).
Polyamine deacetylase HDAC10, sequence (Q969S8 whole entry): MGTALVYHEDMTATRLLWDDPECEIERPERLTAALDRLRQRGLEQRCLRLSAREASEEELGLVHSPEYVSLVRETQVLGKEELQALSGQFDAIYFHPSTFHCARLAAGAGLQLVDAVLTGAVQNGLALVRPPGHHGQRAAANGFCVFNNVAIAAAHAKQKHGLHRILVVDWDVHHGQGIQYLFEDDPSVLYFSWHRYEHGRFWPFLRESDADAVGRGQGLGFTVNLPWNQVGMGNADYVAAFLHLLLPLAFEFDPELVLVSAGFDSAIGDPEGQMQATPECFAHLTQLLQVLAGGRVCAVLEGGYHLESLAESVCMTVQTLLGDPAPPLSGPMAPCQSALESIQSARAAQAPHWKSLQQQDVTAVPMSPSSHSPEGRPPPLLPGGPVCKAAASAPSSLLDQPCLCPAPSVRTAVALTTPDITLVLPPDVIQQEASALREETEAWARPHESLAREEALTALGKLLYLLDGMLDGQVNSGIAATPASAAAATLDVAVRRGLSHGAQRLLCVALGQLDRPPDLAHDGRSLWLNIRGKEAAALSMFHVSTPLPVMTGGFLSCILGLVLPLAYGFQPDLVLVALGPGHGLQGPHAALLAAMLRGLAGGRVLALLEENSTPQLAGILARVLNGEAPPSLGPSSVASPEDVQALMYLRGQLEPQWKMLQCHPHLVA
For the next assay, the target named is Histone deacetylase 2 (Homo sapiens, UniProt Q92769). As to the kind of experiment: Inhibition of HDAC2 (unknown origin).
Histone deacetylase 2, sequence (Q92769 whole entry): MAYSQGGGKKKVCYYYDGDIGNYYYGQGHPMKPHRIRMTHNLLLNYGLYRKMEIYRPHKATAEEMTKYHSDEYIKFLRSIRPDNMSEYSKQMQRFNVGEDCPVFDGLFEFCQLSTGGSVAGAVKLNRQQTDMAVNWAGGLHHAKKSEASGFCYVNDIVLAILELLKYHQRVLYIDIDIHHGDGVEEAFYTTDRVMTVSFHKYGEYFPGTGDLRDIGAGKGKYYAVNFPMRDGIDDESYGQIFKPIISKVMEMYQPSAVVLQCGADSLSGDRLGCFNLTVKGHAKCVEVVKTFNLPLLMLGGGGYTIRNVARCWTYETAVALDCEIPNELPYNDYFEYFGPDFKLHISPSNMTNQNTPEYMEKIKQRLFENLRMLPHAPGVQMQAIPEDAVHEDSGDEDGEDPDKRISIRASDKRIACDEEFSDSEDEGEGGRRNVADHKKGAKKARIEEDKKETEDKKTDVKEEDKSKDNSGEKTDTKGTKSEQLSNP
In assay [11] the test system is MCF7. The assay can be described thus: Antiproliferative activity against human MCF7 cells assessed as reduction in cell viability after 48 hrs by MTT assay. The assay is classed as functional, cell-based. Particulars: MCF7, 48 h.
The target in another assay is Tubulin (Bos taurus, UniProt Q6B856+Q862L2+Q862F3). As to the kind of experiment: Inhibition of bovine brain tubulin polymerization by spectrometric analysis.
In the next assay the test system is HeLa. The assay can be described thus: Antiproliferative activity against human HeLa cells assessed as reduction in cell viability after 48 hrs by MTT assay. The assay is classed as functional, cell-based.
The subject of assay [12] is HepG2. As to the kind of experiment: Antiproliferative activity against human HepG2 cells assessed as reduction in cell viability after 48 hrs by MTT assay. Type of assay: functional, cell-based. The following applies: HepG2, 48 h.
The next assay concerns HuCC-A1. The assay can be described thus: Antiproliferative activity against human HuCCa1 cells assessed as reduction in cell viability after 3 days by MTT assay. The assay is classed as functional, cell-based. The following applies: HuCC-A1, 72 h.
The subject of assay [13] is K562. The assay can be described thus: Antiproliferative activity against human K562 cells assessed as reduction in cell viability by MTT assay. Type of assay: functional, cell-based.
A further assay concerns HCT-116. The assay can be described thus: Antiproliferative activity against human HCT116 cells assessed as reduction in cell viability by MTT assay. The assay is classed as functional, cell-based.
The test system of assay [14] is HepG2. The assay can be described thus: Antiproliferative activity against human HepG2 cells assessed as reduction in cell viability by MTT assay. The assay is classed as functional, cell-based.
For assay [15], the system named is MCF7. The assay can be described thus: Antiproliferative activity against human MCF7 cells assessed as reduction in cell viability by MTT assay. Type of assay: functional, cell-based.
The next assay concerns the target Histone deacetylase 8 (Homo sapiens, UniProt Q9BY41). The assay can be described thus: Inhibition of HDAC8 (unknown origin) by fluorescence based assay.
Assay [16] deals with Protein deacetylase HDAC6 (Homo sapiens, UniProt Q9UBN7). As to the kind of experiment: Inhibition of HDAC6 (unknown origin) by fluorescence based assay.
Protein deacetylase HDAC6, sequence (Q9UBN7 whole entry): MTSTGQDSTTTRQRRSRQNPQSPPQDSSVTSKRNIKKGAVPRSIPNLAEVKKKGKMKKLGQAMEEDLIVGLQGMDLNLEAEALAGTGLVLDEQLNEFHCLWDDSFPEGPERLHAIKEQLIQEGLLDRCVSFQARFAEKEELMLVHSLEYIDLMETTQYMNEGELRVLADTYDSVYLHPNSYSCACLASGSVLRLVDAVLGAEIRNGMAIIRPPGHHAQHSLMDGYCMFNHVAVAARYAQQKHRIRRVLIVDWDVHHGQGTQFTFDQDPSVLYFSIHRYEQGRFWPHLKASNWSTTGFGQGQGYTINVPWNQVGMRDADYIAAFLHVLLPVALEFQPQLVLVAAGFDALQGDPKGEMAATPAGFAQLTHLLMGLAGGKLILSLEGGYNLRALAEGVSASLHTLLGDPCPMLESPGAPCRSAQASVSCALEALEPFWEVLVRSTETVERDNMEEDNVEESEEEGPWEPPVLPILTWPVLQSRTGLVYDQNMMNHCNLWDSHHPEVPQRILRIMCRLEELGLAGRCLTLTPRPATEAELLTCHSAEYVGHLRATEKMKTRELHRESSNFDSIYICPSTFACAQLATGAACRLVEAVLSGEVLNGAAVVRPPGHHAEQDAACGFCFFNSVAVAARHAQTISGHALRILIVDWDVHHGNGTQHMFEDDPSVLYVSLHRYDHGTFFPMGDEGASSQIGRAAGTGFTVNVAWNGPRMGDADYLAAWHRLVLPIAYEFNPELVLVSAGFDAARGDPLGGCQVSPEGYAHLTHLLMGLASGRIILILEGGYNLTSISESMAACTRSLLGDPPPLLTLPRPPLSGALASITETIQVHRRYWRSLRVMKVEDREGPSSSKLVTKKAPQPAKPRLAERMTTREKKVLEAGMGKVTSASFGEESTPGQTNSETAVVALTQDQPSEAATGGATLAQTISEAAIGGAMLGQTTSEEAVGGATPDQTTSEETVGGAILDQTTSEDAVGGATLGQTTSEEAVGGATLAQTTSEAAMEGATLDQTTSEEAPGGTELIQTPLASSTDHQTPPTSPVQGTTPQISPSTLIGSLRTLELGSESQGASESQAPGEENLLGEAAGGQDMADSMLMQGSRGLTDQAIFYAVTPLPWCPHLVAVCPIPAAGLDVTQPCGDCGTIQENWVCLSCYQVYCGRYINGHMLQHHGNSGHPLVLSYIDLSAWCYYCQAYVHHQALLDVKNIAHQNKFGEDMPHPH
The subject of the next assay is LoVo. The assay can be described thus: Antiproliferative activity against human LoVo cells assessed as reduction in cell viability by MTT assay. Type of assay: functional, cell-based.

≈ marks a conversion by molar mass, not a printed value.

Histone deacetylase 8, sequence (Q9BY41 whole entry): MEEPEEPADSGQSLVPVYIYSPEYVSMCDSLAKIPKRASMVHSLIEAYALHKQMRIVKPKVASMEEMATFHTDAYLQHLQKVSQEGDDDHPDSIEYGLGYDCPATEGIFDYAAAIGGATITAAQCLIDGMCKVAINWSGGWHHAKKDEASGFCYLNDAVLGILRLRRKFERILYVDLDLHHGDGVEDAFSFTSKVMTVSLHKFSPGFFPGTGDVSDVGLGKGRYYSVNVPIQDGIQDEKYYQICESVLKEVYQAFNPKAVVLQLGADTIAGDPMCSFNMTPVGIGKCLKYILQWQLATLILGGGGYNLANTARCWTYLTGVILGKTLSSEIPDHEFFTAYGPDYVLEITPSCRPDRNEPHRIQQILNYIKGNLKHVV
Aromatase, sequence (P11511 whole entry): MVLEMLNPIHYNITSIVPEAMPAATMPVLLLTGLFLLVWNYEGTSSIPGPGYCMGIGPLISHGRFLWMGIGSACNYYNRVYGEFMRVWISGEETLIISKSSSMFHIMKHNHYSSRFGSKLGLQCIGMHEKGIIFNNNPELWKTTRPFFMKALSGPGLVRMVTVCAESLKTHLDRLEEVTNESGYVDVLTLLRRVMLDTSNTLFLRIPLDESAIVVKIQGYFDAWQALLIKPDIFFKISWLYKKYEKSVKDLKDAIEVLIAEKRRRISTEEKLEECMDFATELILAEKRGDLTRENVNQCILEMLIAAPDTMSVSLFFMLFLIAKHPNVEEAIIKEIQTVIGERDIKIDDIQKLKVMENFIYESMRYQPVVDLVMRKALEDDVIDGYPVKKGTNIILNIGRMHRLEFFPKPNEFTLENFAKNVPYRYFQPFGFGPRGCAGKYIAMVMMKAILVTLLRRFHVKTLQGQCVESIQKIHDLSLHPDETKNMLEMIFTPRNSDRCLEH
Histone deacetylase 3, sequence (O15379 whole entry): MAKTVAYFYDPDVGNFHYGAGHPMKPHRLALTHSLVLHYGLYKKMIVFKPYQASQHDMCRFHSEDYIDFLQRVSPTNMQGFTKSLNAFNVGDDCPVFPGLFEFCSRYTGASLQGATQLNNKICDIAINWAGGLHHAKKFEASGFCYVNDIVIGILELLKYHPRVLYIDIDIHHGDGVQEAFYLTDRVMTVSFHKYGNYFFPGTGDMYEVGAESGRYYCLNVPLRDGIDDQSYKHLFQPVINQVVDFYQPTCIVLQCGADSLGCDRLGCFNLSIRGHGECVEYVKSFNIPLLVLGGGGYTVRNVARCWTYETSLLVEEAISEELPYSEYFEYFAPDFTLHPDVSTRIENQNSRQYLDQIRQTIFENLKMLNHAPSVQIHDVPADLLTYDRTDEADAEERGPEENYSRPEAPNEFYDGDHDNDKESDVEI
Description for Histone deacetylase 1: Inhibition of HDAC1 (unknown origin)

What is called IC50 is the concentration that inhibits the measured activity by half. For the molecule `O=[N+]([O-])c1ccc(S(=O)(=O)NCCc2c(C(c3ccccc3O)c3[nH]c4ccccc4c3CCNS(=O)(=O)c3ccc([N+](=O)[O-])cc3)[nH]c3ccccc23)cc1`, the IC50 in the assay on MOLT-3 turned out to be 3.95 µg/mL (≈ 4.97 µM).

In general, Ki refers to a dissociation constant, usually derived from enzyme kinetics or from competition with a known ligand. A higher Ki goes with lower affinity. As for `CC[C@]1(O)C[C@H]2CN(CCc3c([nH]c4ccccc34)[C@@](C(=O)OC)(c3cc4c(cc3OC)N(C=O)[C@H]3[C@@](O)(C(=O)OC)[C@H](OC(C)=O)[C@]5(CC)C=CCN6CC[C@]43[C@@H]65)C2)C1` [VINCRISTINE], in assay [1], the inhibition constant (Ki) came to 85 nM.

The molecule `Cc1cc(OCCCc2c(C(=O)NS(=O)(=O)c3ccc(C(=O)NCc4ccccc4)o3)[nH]c3c(-c4c(C)n[nH]c4C)c(Cl)ccc23)cc(C)c1Cl` showed a Ki in assay [2] of 2.4 nM.

Take `Cc1[nH]c2ccccc2c1/C=N\Nc1ccc(Cl)cc1`: the IC50 at Aromatase worked out at 8720 nM.

Consider `CN1CCN(c2ncc([N+](=O)[O-])c(Nc3c(C(=O)c4cccs4)[nH]c4cc(Cl)ccc34)n2)CC1`, for which the figures for the IC50 in the assay on HT-29 and in the assay on A549 [3] were 5560 nM and 14400 nM, respectively.

The term inhibition denotes the change of the read-out against control, counted positive when it falls. Broadly, the GI50 is the concentration at which growth is held to half of that of the control. A high value points to lower sensitivity of the cells. Take `Cc1noc(C)c1-c1ccc2c(c1)c(Cc1ccc(F)cc1)cn2CCCCCCC(=O)NO`: the inhibition in assay [4] came to 88%. Besides, in assay [5], the IC50 was determined as 5 nM. Further, the concentration for 50% growth inhibition (GI50) in the assay on THP-1 lay in the range of 7820 to 24200 nM.

With `COc1cc(S(=O)(=O)/C=C/c2cccc3[nH]ccc23)cc(OC)c1OC`, the IC50 in the assay with K562 [6] was determined as 55 nM; in the assay with A549 [7] it was 305 nM; in the assay with HepG2 [8] it was 75 nM.

`COc1cc2c(cc1OC)CN(CCCCc1cn(-c3ccc(F)cc3)c3ccccc13)CC2` yielded a Ki in [9] of 5.34 nM. In other words, the single-digit nanomolar range.

In the case of `Nc1ccc(F)cc1NC(=O)c1ccc(CNC(=O)/C=C/c2cccnc2)cc1`, the IC50 was found to be 67 nM on Histone deacetylase 3, 95 nM at Histone deacetylase 1, 78 nM in assay [10] and 160 nM on Histone deacetylase 2.

For the molecule `COc1cc(C2=NN(C(N)=O)C(c3cn(C)c4ccc(Br)cc34)C2)cc(OC)c1OC` (stereo unspecified), the IC50 in the assay with MCF7 [11] was determined as 290 nM; at Tubulin, 2120 nM; with HeLa, 210 nM; in the assay with A549 [3], 260 nM; in the assay on HepG2 [12], 310 nM.

Turning to `O=S(=O)(NCCc1c(C(c2ccccc2O)c2[nH]c3ccccc3c2CCNS(=O)(=O)c2ccc(Cl)cc2)[nH]c2ccccc12)c1ccc(Cl)cc1`, the IC50 in the assay with A549 [7] was found to be 8740 nM; with HuCC-A1 it was 7750 nM.

Take `COc1ccc2[nH]cc(Cn3cc(COc4ccc(/C=C/C(=O)NO)cc4OC)nn3)c2c1`: the IC50 in the assay on K562 [13] was 3570 to 6210 nM; with HCT-116, 3570 to 6210 nM; with HepG2 [14], 3570 to 6210 nM; with MCF7 [15], 3570 to 6210 nM; at Histone deacetylase 8, 380 nM; in assay [16], 290 nM. In addition, the IC50 with LoVo lay within 3570 to 6210 nM.
